Results: the supplement of paper PMC6045584
± gives the standard deviation of the averaged measurements.

Tests used:
[1] = compound: T1, CCCCCCCCCCCCCCCC(=O)Nc1ccn([C@@H]2O[C@H](CO)[C@@H](O)[C@@H]2C#N)c(=O)n1 [SAPACITABINE]; experiment: surviving fraction relative to DMSO-only wells; higher = less growth inhibition; conditions: exposure time: 5 days
How it was run: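 Log-phase tumour cells were seeded at 250–500 per well in 384-well plates and, from 24 hours after seeding, exposed continuously for five days to inhibitors at 0.5, 1, 5, 10, 50, 100, 500 and 1000 nM. Surviving fraction is CellTiter-Glo luminescence normalised to the median of DMSO-only wells. Luminescence was measured after 10 minutes at room temperature, and only lines screened three times with replicate Pearson r >0.7 and median Z' >0.3 were kept.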

[2] = compound: T1, SAPACITABINE; experiment: area under dose-response curve of surviving fraction (unscaled, Aref=0) (surviving fraction x log10(nM)); higher = more resistant; conditions: exposure time: 5 days; dose range 0.5-1000 nM
How it was run: (§1)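 Tumour cell lines in 384-well plates were exposed to eight inhibitor concentrations, from 0.5 to 1000 nM, for five days, and viability was read by CellTiter-Glo luminescence in three screens per line. Signals were normalised to DMSO-only wells, and 3-parameter logistic regression in the drc R package fitted dose-response survival curves to the surviving fractions. Area under the curve is given as the unscaled activity area. That area is taken over log10 dose with Aref = 0.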

[3] = compound: Cn1cc(C2=Nc3cc(NC(=O)C(N)C4CCCCC4)cc4c3C2=CNNC4=O)cn1; experiment: as above; conditions: exposure time: 5 days; dose range 0.5-1000 nM
How it was run: as §1

[4] = compound: Nc1nc2[nH]cnc2c(=S)[nH]1 [TIOGUANINE]; experiment: as above; conditions: exposure time: 5 days; dose range 0.5-1000 nM
How it was run: as §1

[5] = compound: C=CC(=O)Nc1cc2c(Nc3ccc(F)c(Cl)c3)ncnc2cc1OCCCN1CCOCC1 [CANERTINIB]; experiment: as above; conditions: exposure time: 5 days; dose range 0.5-1000 nM
How it was run: as §1

[6] = compound: CC[C@@H]1C(=O)N(C)c2cnc(Nc3ccc(C(=O)NC4CCN(C)CC4)cc3OC)nc2N1C1CCCC1 [BI-2536]; experiment: as above; conditions: exposure time: 5 days; dose range 0.5-1000 nM
How it was run: as §1

[7] = compound: CC1(C)CC(=O)c2c(C(F)(F)F)nn(-c3ccc(C(N)=O)c(N[C@H]4CC[C@H](OC(=O)CN)CC4)c3)c2C1 [SNX-5422]; experiment: as above; conditions: exposure time: 5 days; dose range 0.5-1000 nM
How it was run: as §1

[8] = compound: CN(C)C/C=C/C(=O)Nc1cc2c(Nc3ccc(F)c(Cl)c3)ncnc2cc1O[C@H]1CCOC1 [AFATINIB]; experiment: as above; conditions: exposure time: 5 days; dose range 0.5-1000 nM
How it was run: as §1

[9] = compound: CNC(=O)c1ccc(N2C(=S)N(c3ccc(C#N)c(C(F)(F)F)c3)C(=O)C2(C)C)cc1F [MDV3100]; experiment: as above; conditions: exposure time: 5 days; dose range 0.5-1000 nM
How it was run: as §1

| Test System | surviving fraction ([1]; 0.5 nM) | surviving fraction ([1]; 1 nM) | surviving fraction ([1]; 5 nM) | surviving fraction ([1]; 10 nM) | surviving fraction ([1]; 50 nM) | surviving fraction ([1]; 100 nM) | surviving fraction ([1]; 500 nM) | surviving fraction ([1]; 1000 nM) | area under dose-response curve [2] | area under dose-response curve [3] | area under dose-response curve [4] | area under dose-response curve [5] | area under dose-response curve [6] | area under dose-response curve [7] | area under dose-response curve [8] | area under dose-response curve [9] |
| --- | --- | --- | --- | --- | --- | --- | --- | --- | --- | --- | --- | --- | --- | --- | --- | --- |
| HCC1954 BREAST | 0.436 ± 0.047 | 0.437 ± 0.016 | 0.445 ± 0.058 | 0.559 ± 0.1 | 0.464 ± 0.037 | 0.371 ± 0.014 | 0.425 ± 0.0067 | 0.343 ± 0.035 | 1.48 | 2.06 | 3.09 | 0.92 | 1.92 | 1.62 | 1.86 | – |
| HS57T BREAST | 0.892 ± 0.016 | 0.885 ± 0.028 | 0.904 ± 0.051 | 0.853 ± 0.027 | 0.75 ± 0.024 | 0.612 ± 0.045 | 0.325 ± 0.037 | 0.246 ± 0.011 | – | – | – | – | – | – | – | – |
| VCAP PROSTATE | 0.892 ± 0.048 | 0.935 ± 0.07 | 0.959 ± 0.085 | 0.91 ± 0.055 | 1.06 ± 0.038 | 1.03 ± 0.1 | 0.95 ± 0.015 | 0.791 ± 0.1 | 3.11 | 2.82 | 3.49 | 3.15 | 0.516 | 2.12 | 3.11 | – |
| CAL72 BONE | 0.986 ± 0.07 | 0.951 ± 0.041 | 0.91 ± 0.058 | 0.798 ± 0.13 | 0.559 ± 0.049 | 0.369 ± 0.12 | 0.181 ± 0.039 | 0.128 ± 0.027 | 2.07 | 2.58 | 3.66 | – | 0.831 | 2.02 | 3.5 | 3.36 |
| OSHN BONE | 0.902 ± 0.034 | 0.917 ± 0.024 | 0.92 ± 0.013 | 0.891 ± 0.014 | 0.998 ± 0.02 | 0.928 ± 0.011 | 0.345 ± 0.032 | 0.158 ± 0.011 | 2.83 | 2.6 | – | 3.16 | 1.13 | 2.25 | 3.58 | 3.44 |
| SG27 HEADNECK | 1.05 ± 0.027 | 1.01 ± 0.041 | 1 ± 0.16 | 0.731 ± 0.054 | 0.97 ± 0.021 | 0.975 ± 0.075 | 0.999 ± 0.025 | 0.885 ± 0.022 | – | 3.1 | 3.34 | 3.27 | 2.97 | 2.78 | 3.13 | – |
| HCT15 LARGE INTESTINE | 0.76 ± 0.048 | 0.693 ± 0.056 | 0.713 ± 0.064 | 0.298 ± 0.063 | 0.458 ± 0.074 | 0.143 ± 0.021 | 0.141 ± 0.013 | 0.0447 ± 0.0085 | 1.34 | 3.4 | – | 2.73 | 1.88 | 2.24 | 3.26 | 2.75 |
| SKBR3 BREAST | 0.873 ± 0.076 | 0.696 ± 0.054 | 0.756 ± 0.012 | 0.828 ± 0.046 | 0.791 ± 0.15 | 0.572 ± 0.096 | 0.386 ± 0.084 | 0.391 ± 0.051 | 2.23 | 2.39 | 3.36 | 1.75 | 0.991 | 2.08 | 0.986 | – |
| HMT3552 BREAST | 0.838 ± 0.009 | 0.825 ± 0.075 | 0.943 ± 0.027 | 0.887 ± 0.053 | 1.141 ± 0.0031 | 1 ± 0.093 | 0.418 ± 0.019 | 0.303 ± 0.024 | 2.99 | – | – | 2.58 | – | – | – | 3.66 |
